Laboratory results taken from US20220378676A1, “COMPOSITION FOR ENHANCING SKIN ELASTICITY OR IMPROVING SKIN WRINKLES” (AMOREPACIFIC CORPORATION, priority 2021, published 2022).

Assays:
c-Jun = c-Jun phosphorylation in particulate matter-treated fibroblasts (western blotting); type: cell-based; conditions: human-derived fibroblasts, PM2.5, 100 μM, 24 hours; effect similar to SP600125
Procedure: Human-derived fibroblasts (LONZA Inc.) were treated with particulate matter (PM2.5). Then, after treatment with 100 μM of 2-isopropylmalic acid for 24 hours, cell lysate was made, protein was quantified, and the same amount of protein was separated by electrophoresis, and c-Jun, p-c-Jun (phosphorylated c-Jun) was performed by western blotting.

TNF-α = TNF-α expression in particulate matter-treated fibroblasts (ELISA); type: cell-based; conditions: human-derived fibroblasts, PM2.5 50 ug/mL, 100 μM, 24 hours
Procedure: (§1) Human-derived fibroblasts (LONZA Inc.) were transfected with siRNA for IFT88 (siIFT88) or scrambled siRNA (SC), respectively, and then were treated with 50 ug/mL of particulate matter (PM2.5) and 100 μM of 2-isopropylmalic acid for 24 hours. Thereafter, the expression levels of IL-6 and TNF-α, which were inflammatory cytokines, were measured in culture conditions by ELISA assay, and the results were shown in FIG. 9.

IL-6 = IL-6 expression in particulate matter-treated fibroblasts (ELISA); type: cell-based; conditions: human-derived fibroblasts, PM2.5 50 ug/mL, 100 μM, 24 hours
Procedure: as §1

[1] = test system: RPE/Smo-GFP primary cilia model cells; test: Assessment of primary ciliary activation (confocal microscopy); type: cell-based, human; conditions: 20 μM, 100 μM, 24 hours, vs control group
Procedure: In order to confirm the primary cilia activation effect of 2-isopropylmalic acid, RPE/Smo-GFP, primary cilia model cells, was prepared. Specifically, human telomerase-immortalized retinal pigmented epithelial (RPE) cells (ATCC Inc.) were transformed with Smo-GFP plasmid (Addgene Inc.) to prepare RPE/Smo-GFP. After treating RPE/Smo-GFP with 2-isopropylmalic acid (Sigma Aldrich Inc.) at different concentrations (20 μM, 100 μM) for 24 hours, the primary cilia production rate and primary cilia length were measured by confocal microscopy (LSM510; Carl Zeiss Microimaging Inc., Thornwood, N.Y.) and the results were shown in FIGS. 2 and 3. The production rate of primary cilia was expressed as the ratio of the number of cells having primary cilia to the total number of cells as a percentage, and the length of primary cilia was a measure of the actual length of all cilia observed under a microscope. As a positive control, SAG (SMO agonist, Calbiochem Inc.), which was a primary cilia production promoting substance, was used.

[2] = test system: RPE/Smo-GFP primary cilia model cells; test: Assessment of activation of primary cilia inhibited by particulate matter (PM2.5); type: cell-based, human; conditions: PM2.5 50 ug/ml, 100 μM, 24 hours
Procedure: Particulate matter (PM2.5) was treated in RPE/Smo-GFP, which was the primary cilia model cells of Experimental Example 2. Specifically, particulate matter was directly collected in the air (37.34° N, 127.27° E, 167 m above sea level) using a Teflon filter (Teflon filter, Zefluor, Pall Life Science, Ann Arbor, Mich., USA). Then, this was treated at a concentration of 50 ug/ml in the cell culture medium. Thereafter, after treatment with 100 μM of 2-isopropylmalic acid for 24 hours, the fluorescence of Smo-GFP was visually observed using a fluorescence microscope, and then the production rate and length of primary cilia were measured and shown in FIGS. 4 and 5. The production rate of primary cilia was expressed as the ratio of the number of cells having primary cilia to the total number of cells as a percentage, and the length of primary cilia was a measure of the actual length of all cilia observed under a microscope. As a positive control, SAG (SMO agonist, Calbiochem Inc.), which was a primary cilia production promoting substance, was used.

MMP-1 [3] = test: MMP-1 expression in particulate matter-treated fibroblasts (western blotting); type: cell-based; conditions: human-derived fibroblasts, PM2.5, 100 μM, 24 hours
MMP-1 [4] = test: Inhibition of MMP-1 expression in an artificial skin model (immunocytochemistry, image analysis); type: cell-based; conditions: full-thickness human 3D-skin model, PM2.5 100 ug/mL, 50 uM, 100 uM, 48 hours
Procedure: The effect of 2-IPMA on the skin was evaluated using a full-thickness human three-dimensional (3-D)-skin model. The full-thickness human 3D-skin model was fabricated in the following way. An artificial dermal layer was formed by loading a mixture of collagen (Nutragen, Advanced Biomatrix Inc.) and fibroblasts (NDFn, ThermoFisher Inc.) in a volume of 400 ul in Transwell® (Corning Inc.). Thereafter, a fibroblast culture medium (M106, Gibco Inc.) was put on the artificial dermal layer and cultured for 7 days to stabilize the artificial dermal layer. Next, keratinocytes (HEKn, ThermoFisher Inc.) were seeded on the artificial dermal layer, and cultured in keratinocyte culture medium (EpiLife, Gibco Inc.) for 1 day, followed by epidermal layer production medium (CnT-3DPR, CellnTEC) for 1 day, and then cultured in the same epidermal layer production medium for 10 days in a state of exposure to air to form an artificial epidermal layer, thereby constructing a full-thickness human 3D-skin model. 100 ug/mL of particulate matter (PM2.5) and 2-isopropylmalic acid (50 uM, 100 uM) were treated in the full-thickness human three-dimensional skin model constructed in this way for 48 hours. Thereafter, hematoxylin-eosin (H&E) staining and MMP-1 immunocytochemistry were performed, and the results were shown in FIG. 10.

collagen = test: Collagen expression in particulate matter-treated fibroblasts (western blotting); type: cell-based; conditions: human-derived fibroblasts, PM2.5, 100 μM, 24 hours

CC(C)C(O)(CC(=O)O)C(=O)O (stereo not shown) [2-isopropylmalic acid]
phosphorylation of c-Jun by particulate matter (c-Jun): suppressed | expression of TNF-α increased by particulate matter (TNF-α): reduced | expression of IL-6 increased by particulate matter (IL-6): reduced | length of primary cilia [1]: increased | proportion of cells with primary cilia (production rate of primary cilia) [1]: statistically significantly higher than that of the control group | length of primary cilia [2]: getting longer | production of primary cilia suppressed by particulate matter [2]: restored | MMP-1 expression (MMP-1 [3]): decreased | expression of MMP-1 increased by the particulate matter (MMP-1 [4]): decreased | collagen expression (collagen): increased
